Among the data in patent publication US12384776B2, “Compounds and uses thereof” (Foghorn Therapeutics Inc., priority 2019, dated 2025) are IC50 values, retold here.

Some results are limits rather than exact numbers.

Usually IC50 stands for the concentration that gives 50% inhibition. A lower IC50 goes with higher potency.

Chain of Nanoluciferase-BRD9 fusion protein (3×FLAG-NLuc-BRD9) in SYO-1 cells (Q9H8M2 whole entry, the tested form may be a part): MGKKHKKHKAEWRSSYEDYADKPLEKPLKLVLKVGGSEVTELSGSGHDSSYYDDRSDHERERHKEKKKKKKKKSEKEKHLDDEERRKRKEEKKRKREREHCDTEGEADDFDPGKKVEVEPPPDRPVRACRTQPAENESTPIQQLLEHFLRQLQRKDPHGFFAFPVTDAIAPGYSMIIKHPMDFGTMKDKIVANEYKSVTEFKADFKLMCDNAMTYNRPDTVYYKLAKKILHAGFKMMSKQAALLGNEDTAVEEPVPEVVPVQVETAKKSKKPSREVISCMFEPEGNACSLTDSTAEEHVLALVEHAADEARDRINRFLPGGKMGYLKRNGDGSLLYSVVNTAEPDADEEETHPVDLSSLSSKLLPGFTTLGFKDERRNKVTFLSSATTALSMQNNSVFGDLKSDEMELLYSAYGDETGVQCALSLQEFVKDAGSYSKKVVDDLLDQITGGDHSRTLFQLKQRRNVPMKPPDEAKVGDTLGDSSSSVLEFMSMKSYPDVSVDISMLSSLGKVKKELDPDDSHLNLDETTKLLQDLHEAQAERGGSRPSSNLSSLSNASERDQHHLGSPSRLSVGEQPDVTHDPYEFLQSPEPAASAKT

This assay concerns the target Nanoluciferase-BRD9 fusion protein (3×FLAG-NLuc-BRD9) in SYO-1 cells (Homo sapiens (Human), UniProt Q9H8M2). The experiment in a line: SYO1 BRD9 NanoLuc degradation assay. It counts as cell-based. The following applies: SYO-1 cells expressing 3×FLAG-NLuc-BRD9, 6 hours incubation, top dose 1 μM. Here is the method:
Procedure: A stable SYO-1 cell line expressing 3×FLAG-NLuc-BRD9 was generated. On day 0 cells were seeded in 30 μL media into each well of 384-well cell culture plates. The seeding density was 8000 cells/well. On day 1, cells were treated with 30 nL DMSO or 30 nL of 3-fold serially DMSO-diluted compounds (10 points in duplicates with 1 μM as final top dose). Subsequently plates were incubated for 6 hours in a standard tissue culture incubator and equilibrated at room temperature for 15 minutes. Nanoluciferase activity was measured by adding 15 μL of freshly prepared Nano-Glo Luciferase Assay Reagent (Promega N1130), shaking the plates for 10 minutes and reading the bioluminescence using an EnVision reader.
Results: The Inhibition % was calculated using the following formula: % Inhibition=100×(LumHC−LumSample)/(LumHC−LumLC). DMSO treated cells are employed as High Control (HC) and 1 μM of a known BRD9 degrader standard treated cells are employed as Low Control (LC).
`COc1cc(-c2cn(C)c(=O)c3c2CCN(C(=O)NCC(F)F)C3)cc(OC)c1CN1CCN(CCC2CCN(c3ccc4c(c3)C(=O)N(C3CCC(=O)NC3=O)C4=O)CC2)CC1` (stereo not drawn) [Compound D46] returned a 50% inhibitory concentration (IC50) below 10 nM. Regarding `[2H]C([2H])([2H])NC(=O)N1CCc2c(-c3cc(OC)c(CN4CCC(CN5CCC6(CC5)CC(Oc5ccc7c(c5)C(=O)N(C5CCC(=O)NC5=O)C7=O)C6)CC4)c(OC)c3)cn(C)c(=O)c2C1` (stereo not drawn) [Compound D47], the IC50 is below 10 nM. The same measure for `[2H]C([2H])([2H])NC(=O)N1CCc2c(-c3cc(OC)c(CN4CCN(CCC5CCN(c6ccc7c(c6)C(=O)N(C6CCC(=O)NC6=O)C7=O)CC5)CC4)c(OC)c3)cn(C)c(=O)c2C1` (stereo not drawn) [Compound D48]: below 10 nM; for `CNC(=O)N1CCc2c(-c3cc(OC)c(CN4CCC(CCN5CCN(c6ccc7c(c6OC)CN(C6CCC(=O)NC6=O)C7=O)CC5)CC4)c(OC)c3)cn(C)c(=O)c2C1` (stereo not drawn) [Compound D49]: below 10 nM. In the case of `CNC(=O)N1CCc2c(-c3cc(OC)c(CN4CCC(CCN5CCN(c6cc7c(c(OC)c6)C(=O)N(C6CCC(=O)NC6=O)C7)CC5)CC4)c(OC)c3)cn(C)c(=O)c2C1` (stereo not drawn) [Compound D50] it was 10 to 100 nM; in that of `CNC(=O)N1CCc2c(-c3cc(OC)c(CN4CC(C(C)N5CCC6(CC5)CN(c5ccc7c(c5)CN(C5CCC(=O)NC5=O)C7)C6)C4)c(OC)c3)cn(C)c(=O)c2C1` (stereo not drawn) [Compound D51], below 10 nM; in that of `CNC(=O)N1CCc2c(-c3cc(OC)c(CN4CC(C(C)N5CCC6(CC5)CN(c5ccc7c(c5)C(=O)N(C5CCC(=O)NC5=O)C7)C6)C4)c(OC)c3)cn(C)c(=O)c2C1` (stereo not drawn) [Compound D52], below 10 nM. In the case of `CNC(=O)N1CCc2c(-c3cc(OC)c(CN4CC(N(C)c5ccc6c(c5)C(=O)N(C5CCC(=O)NC5=O)C6)C4)c(OC)c3)cn(C)c(=O)c2C1` (stereo not drawn) [Compound D53] it was 10 to 100 nM; in that of `CNC(=O)N1CCc2c(-c3cc(OC)c(CN4CCC(CCN5CCN(c6ccc7c(c6)C6(CC6)N(C6CCC(=O)NC6=O)C7=O)CC5)CC4)c(OC)c3)cn(C)c(=O)c2C1` (stereo not drawn) [Compound D54], at least 1000 nM. Compound `CNC(=O)N1CCc2c(-c3cc(Cl)c(CN4CCN(CCC5CCN(c6ccc7c(c6)CN(C6CCC(=O)NC6=O)C7=O)CC5)CC4)c(OC)c3)cn(C)c(=O)c2C1` (stereo not drawn) [Compound D55] registered an IC50 below 10 nM. The same measure for `CNC(=O)N1CCc2c(-c3cc(OC)c(CN4CCC(CN5CCC6(CC5)CN(c5ccc7c(c5)CN(C5CCC(=O)NC5=O)C7=O)C6)CC4)c(OC)c3)cn(C)c(=O)c2C1` (stereo not drawn) [Compound D56]: below 10 nM; for `CNC(=O)N1CCc2c(-c3cc(OC)c(CN4CCC(CCN5CCN(c6ccc7nn(C8CCC(=O)NC8=O)c(=O)n7c6)CC5)CC4)c(OC)c3)cn(C)c(=O)c2C1` (stereo not drawn) [Compound D57]: 10 to 100 nM; for `CNC(=S)N1CCc2c(-c3cc(OC)c(CN4CCC(CCN5CCN(c6ccc7c(c6)CN(C6CCC(=O)NC6=O)C7=O)CC5)CC4)c(OC)c3)cn(C)c(=O)c2C1` (stereo not drawn) [Compound D58]: below 10 nM. The same measure for `CNC(=O)N1CCc2c(-c3cc(OC)c(C(C)N4CC(CN5CCC6(CC5)CN(c5ccc7c(c5)C(=O)N(C5CCC(=O)NC5=O)C7)C6)C4)c(OC)c3)cn(C)c(=O)c2C1` (stereo not drawn) [Compound D59]: 10 to 100 nM. The same measure for `CNC(=O)N1CCc2c(-c3cc(OC)c(CN4CCN(c5cnn(C6CCC(=O)NC6=O)c5)CC4)c(OC)c3)cn(C)c(=O)c2C1` (stereo not drawn) [Compound D60]: 100 to 1000 nM; for `CNC(=O)N1CCc2c(-c3cc(OC)c(CN4CCN(c5ccn6c(=O)n(C7CCC(=O)NC7=O)nc6c5)CC4)c(OC)c3)cn(C)c(=O)c2C1` (stereo not drawn) [Compound D61]: 100 to 1000 nM. `CNC(=O)N1CCc2c(-c3cc(OC)c(CN4CCN(c5nn(C6CCC(=O)NC6=O)c(=O)n5C)CC4)c(OC)c3)cn(C)c(=O)c2C1` (stereo not drawn) [Compound D62] yielded an IC50 of at least 1000 nM. In the case of `CNC(=S)N1CCc2c(-c3cc(OC)c(CN4CCC(CCN5CCN(c6ccc7c(c6)C(=O)N(C6CCC(=O)NC6=O)C7=O)CC5)CC4)c(OC)c3)cn(C)c(=O)c2C1` (stereo not drawn) [Compound D63] it was below 10 nM; in that of `COC(=O)N1CCc2c(-c3cc(OC)c(CN4CCC(CCN5CCN(c6ccc7c(c6)C(=O)N(C6CCC(=O)NC6=O)C7=O)CC5)CC4)c(OC)c3)cn(C)c(=O)c2C1` (stereo not drawn) [Compound D64], below 10 nM. The same measure for `CNC(=O)N1CCc2c(-c3cc(OC)c(CN4CCC(CCN5CCN(c6ccc7nc(C)n(C8CCC(=O)NC8=O)c(=O)c7c6)CC5)CC4)c(OC)c3)cn(C)c(=O)c2C1` (stereo not drawn) [Compound D65]: 100 to 1000 nM. In the case of `COc1cc(-c2cn(C)c(=O)c3c2OCCN3)cc(OC)c1CN1CC(CN2CCC3(CC2)CN(c2ccc4c(c2)C(=O)N(C2CCC(=O)NC2=O)C4)C3)C1` (stereo not drawn) [Compound D66], the concentration for half-maximal inhibition (IC50) is below 10 nM. The same measure for `CNC(=O)N1CCc2c(-c3cc(OC)c(CN4CCC(CCCN5CCN(C6CCC(=O)NC6=O)C(=O)C5)CC4)c(OC)c3)cn(C)c(=O)c2C1` (stereo not drawn) [Compound D67]: 100 to 1000 nM; for `CNC(=O)N1CCc2c(-c3cc(OC)c(CN4CCC(CCN5CCC(c6ccc7c(c6)CN(C6CCC(=O)NC6=O)C7=O)CC5)CC4)c(OC)c3)cn(C)c(=O)c2C1` (stereo not drawn) [Compound D68]: below 10 nM; for `CNC(=O)N1CCc2c(-c3cc(OC)c(CN4CCC(CCN5CCN(c6ccc7c(c6)C(=O)N(C6CCC(=O)NC6=O)C7)CC5)CC4)c(OC)c3)cn(C)c(=O)c2C1` (stereo not drawn) [Compound D69]: below 10 nM.

The compound `CNC(=O)N1CCc2c(-c3cc(OC)c(CN4CCN(CCC5CCN(c6ccc7c(c6)C(=O)N(c6ccc(F)cc6F)C7=O)CC5)CC4)c(OC)c3)cn(C)c(=O)c2C1` [Compound D70] yielded an IC50 of at least 1000 nM.

Turning to `CNC(=O)N1CCc2c(-c3cc(OC)c(CN4CCN(CCN5CCC(c6ccc7c(c6)C(=O)N(C6CCC(=O)NC6=O)C7)CC5)CC4)c(OC)c3)cn(C)c(=O)c2C1` (stereo not drawn) [Compound D71], the IC50 was below 10 nM. The compound `CNC(=O)N1CCc2c(-c3cc(OC)c(CN4CCN(CCN5CCC(c6ccc7c(c6)CN(C6CCC(=O)NC6=O)C7=O)CC5)CC4)c(OC)c3)cn(C)c(=O)c2C1` (stereo not drawn) [Compound D72] returned a half-inhibitory concentration (IC50) below 10 nM. Regarding `CNC(=O)N1CCc2c(-c3cc(OC)c(CN4CCC(CCN5CCC(c6ccc7c(c6)C(=O)N(C6CCC(=O)NC6=O)C7)CC5)CC4)c(OC)c3)cn(C)c(=O)c2C1` (stereo not drawn) [Compound D73], the IC50 was below 10 nM. In the case of `CNC(=O)N1CCc2c(-c3cc(OC)c(CN4CCC(CCN5CCN(C67CC8CC(CC(C8)C6)C7)CC5)CC4)c(OC)c3)cn(C)c(=O)c2C1` [Compound D74] it was at least 1000 nM. With `CNC(=O)N1CCc2c(-c3cc(OC)c(CN4CCC(CCN5CCN(c6cc7c(c(F)c6F)CN(C6CCC(=O)NC6=O)C7=O)CC5)CC4)c(OC)c3)cn(C)c(=O)c2C1` (stereo not drawn) [Compound D75], the IC50 lay in the range of 10 to 100 nM. The same measure for `CNC(=O)N1CCc2c(-c3cc(OC)c(CN4CCC(CCN5CCN(c6ccc(-c7cnn(C8CCC(=O)NC8=O)c7)cc6)CC5)CC4)c(OC)c3)cn(C)c(=O)c2C1` (stereo not drawn) [Compound D76]: below 10 nM. The same measure for `CNC(=O)N1CCc2c(-c3cc(OC)c(CN4CCC(CCN5CCN(c6ccn7c(=O)n(C8CCC(=O)NC8=O)nc7c6)CC5)CC4)c(OC)c3)cn(C)c(=O)c2C1` (stereo not drawn) [Compound D77]: 10 to 100 nM; for `CNC(=O)N1CCc2c(-c3cc(OC)c(CN4CCC(CCN5CCN(c6c(F)cc7c(c6F)C(=O)N(C6CCC(=O)NC6=O)C7=O)CC5)CC4)c(OC)c3)cn(C)c(=O)c2C1` (stereo not drawn) [Compound D78]: below 10 nM; for `CNC(=O)N1CCc2c(-c3cc(CN4CCC(CCN5CCN(c6ccc7c(c6)C(=O)N(C6CCC(=O)NC6=O)C7=O)CC5)CC4)cc(OC)c3)cn(C)c(=O)c2C1` (stereo not drawn) [Compound D79]: at least 1000 nM. The same measure for `[2H]C1([2H])CC([2H])(N2C(=O)c3ccc(N4CCN(CCC5CCN(Cc6c(OC)cc(-c7cn(C)c(=O)c8c7CCN(C(=O)NC)C8)cc6OC)CC5)CC4)cc3C2=O)C(=O)NC1=O` (stereo not drawn) [Compound D80]: below 10 nM; for `COc1cc(-c2cn(C)c(=O)c3c2CCN(C(=O)NC2CC2)C3)cc(OC)c1CN1CCC(CCN2CCN(c3ccc4c(c3)C(=O)N(C3CCC(=O)NC3=O)C4=O)CC2)CC1` (stereo not drawn) [Compound D81]: below 10 nM. Compound `CNC(=O)N1CCc2c(-c3cc(OC)c(CN4CCC(CCN5CCN(c6ccc7c(c6)C(=O)N(C6CCC(=O)N(COC(=O)OC(C)C)C6=O)C7=O)CC5)CC4)c(OC)c3)cn(C)c(=O)c2C1` (stereo not drawn) [Compound D82] came in with a 50% inhibitory concentration (IC50) below 10 nM. The same measure for `CNC(=O)N1CCc2c(-c3cc(OC)c(CN4CCC(CCN5CCN(c6cc7c(cc6F)CN(C6CCC(=O)NC6=O)C7=O)CC5)CC4)c(OC)c3)cn(C)c(=O)c2C1` (stereo not drawn) [Compound D83]: below 10 nM; for `CNC(=O)N1CCc2c(-c3cc(OC)c(CN4CCC(CCN5CCN(c6cc7c(cc6F)C(=O)N(C6CCC(=O)NC6=O)C7)CC5)CC4)c(OC)c3)cn(C)c(=O)c2C1` (stereo not drawn) [Compound D84]: below 10 nM. The same measure for `COc1cc(-c2cn(C)c(=O)c3c2CCN(C(=O)NC2CC2)C3)cc(OC)c1CN1CCC(CCN2CCN(c3ccc4c(c3)CN(C3CCC(=O)NC3=O)C4=O)CC2)CC1` (stereo not drawn) [Compound D85]: below 10 nM; for `CNC(=O)N1CCc2c(-c3cc(OC)c(CN4CCC(CCN5CCN(c6cc(F)c7c(c6)C(=O)N(C6CCC(=O)NC6=O)C7=O)CC5)CC4)c(OC)c3)cn(C)c(=O)c2C1` (stereo not drawn) [Compound D86]: below 10 nM. The same measure for `CNC(=O)N1CCc2c(-c3cc(OC)c(CN4CCC(CCN5CCN(c6ccc7c(c6F)C(=O)N(C6CCC(=O)NC6=O)C7=O)CC5)CC4)c(OC)c3)cn(C)c(=O)c2C1` (stereo not drawn) [Compound D87]: below 10 nM.
